Like-named read-outs stand apart in the source and are kept apart here.
Tests used:
MCF-7 cells = test: cells; type: cell-based, human; settings: for IC50: MTT, 24 h incubation, MCF-7 cells, read-out: MCF7 IC50; for MCF7 TI (IC50 WI-38 / IC50 MCF-7): therapeutic index, ratio of WI-38 IC50 to MCF-7 IC50
Description: (§1) Cells were obtained from the ATCC Company (VACSERA), Cairo, Egypt. MTT assay were performed according to the literature method. More details are in the Supporting Information.
(§2) Recently, OSe compounds gained much attention as possible drug candidates due to their various pharmacological properties. […] Therefore, the anticancer attributes of the newly prepared OSe compounds were estimated using the MTT assay against MCF-7 and HepG2 and compared with their respective cytotoxicity in WI-38 primary cells. The anthracycline drug doxorubicin was used as the standard. […] Moreover, the therapeutic index (TI) was also calculated (according to Equation (1)), which is considered a measure of the selectivity and safety of the synthesized compounds. (1) TI=IC50 for the normal WI38 cells/IC50 for the cancer cells […]
(§3) 1.1. The biological assays
(§4) 1.1.1. The anticancer activity
(§5) The breast adenocarcinoma (MCF-7), Hepatocellular carcinoma (HEPG-2), and nor-mal fibroblast (WI-38) cells were obtained from ATCC via Holding company for biological products and vaccines (VACSERA), Cairo, Egypt.
(§6) DMSO, and fetal bovine serum was obtained from Sigma Aldrich. Dulbecco’s modified Eagle’s medium was used as the culture medium for the cells, and the cytotoxicity was evaluated using the reported MTT assay. Doxorubicin was used as the positive reference, and the IC50 values were obtained from the corresponding dose-response curve.
(§7) This colorimetric assay is based on converting the yellow tetrazolium bromide (MTT) to a purple formazan derivative by mitochondrial succinate dehydrogenase in viable cells. […]
(§8) added were 100 units/ml penicillin and 100µg/ml streptomycin at 37 C in a 5% Co2 incu-bator. The cell lines were seeded in a 96-well plate at a density of 1.0x10^4 cells/well. at 37 C for 48 h under 5% Co2. After incubation, the cells were treated with different concentra-tions of compounds and incubated for 24 h. After 24 h of drug treatment, 20 µl of MTT solution at 5mg/ml was added and incubated for 4 h. Finally, dimethyl sulfoxide (DMSO) in the volume of 100 µl is added to each well to dissolve the purple formazan formed. The colorimetric assay is measured and recorded at an absorbance of 570 nm using a plate […]
(§9) The percentage of the relative cell viability was calculated as (A570 of treated samples/A570 of the untreated sample) X 100. […]

WI-38 cells = test: cells; type: cell-based, human; settings: MTT, 24 h incubation, normal WI-38 cells, read-out: WI38 IC50
Description: as §1, §2, §3, §4, §5, §6, §7, §8, §9

[1] = ABTS radical scavenging bioassay; type: biochemical; settings: for radical scavenging activity, ABTS assay: compound 1 mM in phosphate-buffered methanol, 734 nm; for IC50: concentration decreasing absorbance by 50%
Description: The antioxidant activity was estimated by ABTS and DPPH bioassays, according to the reported literature method. More details are in the Supplementary Materials.
Recently, OSe compounds were thoroughly used as redox modulators to control many complicated diseases (e.g., cancer and neurodegenerative diseases). The DPPH and ABTS bioassays were extensively used as rapid tools for estimating the antioxidant potency of OSe compounds [50, 51]. Ascorbic acid was used as a standard control, and the antioxidant potency was measured by the ability of the compounds to decolorize the characteristic colors of the ABTS^. and DPPH^. radicals by following the colorimetric decline in absorbance at 734 and 517 nm, respectively (Figure 2).
Figure 2 Evaluation of the antioxidant properties of the OSe compounds employing the ABTS and DPPH assays. All measurements are mean ± SD. In the DPPH assay: absorbance was read after 0.5 h of mixing […] of DPPH with […] of OSe compounds (1 mM, MeOH) at 517 nm. In the ABTS assay: […] of each OSe compound (1 mM, phosphate-buffered methanol) was mixed with the ABTS solution (60 mM), and absorbance was monitored at 734 nm.
The antioxidant activity of the investigated compounds was assessed using 2,2’-az-ino-bis(3-ethylbenzothiazoline-6-sulphonic acid (ABTS) method. The radical cation derived from ABTS was prepared by the reaction of 60 mM ABTS solution with 0.3 M manganese dioxide solution in 0.1M phosphate buffer, pH 7. Then, the mixture was shaken, centrifuged, filtered, and the absorbance (Acontrol) of the resulting green-blue solu-tion (ABTS radical solution) was measured at wavelength 734 nm. Then, […] of 1 mg/ml test compound in phosphate-buffered methanol was added. The absorbance (Atest) was measured. The reduction in color intensity was expressed as % inhibition. The % inhibi-tion for each compound is calculated from the following equation
Inhibition% = (Acontrol-Asample)/(Acontrol)*100
Ascorbic acid (vitamin C) was used as a standard antioxidant (positive control). A blank sample was run without ABTS and using MeOH/phosphate buffer (1:1) instead of the sample. A negative control sample was run with MeOH/phosphate buffer (1:1) instead

Candida albicans = test: microbe, parasite or virus in culture; type: cell-based; set-up: C. albicans A% (activity index): concentration or dose not given beside the values; settings: for C. albicans A% (activity index): zone of test compound / zone of standard (clotrimazole) x 100; for zone of inhibition at 20 µM: Candida albicans, read-out: C. albicans IZD (mm)
Description: The antimicrobial activities of the OSe compounds were evaluated against C. albicans yeast, as well as E. coli and S. bacteria, employing the agar well diffusion assay. Furthermore, the MICs (in µM) were determined by the microdilution method according to the reported protocol. More details are in the Supporting Information.
Compounds were evaluated for their antimicrobial activity against the Gram-negative bacteria Escherichia coli (E. coli) and the Gram-positive bacteria Staphylococcus aureus (S. aureus), as well as the Candida albicans (C. albicans) fungal strain, using the agar diffusion assay. Ampicillin and clotrimazole were used as standards. Indeed, the antimicrobial properties of the OSe compounds were also obtained from the activity index percentage (A%) according to Equation (2). (2) A%=Zone of inhibition by test compound diametre/Zone of inhibition by standard diametre×100 . […]
1.1.1. The antimicrobial activity
The antimicrobial activities of the OSe compounds were evaluated against C. albicans yeast as well as E. coli gram-negative and S. aureus gram-positive bacteria employing the agar well diffusion assay. […]
compound by dissolving in DMSO. […]
Petri dishes, which in turn contain a nutrient media (agar 20 g, peptone 5 g, and beef extract 3 g) seeded with the dedicated strain. Incubation lasted for 24 h at 36
Furthermore, the MICs (in µM) were determined by the microdilution method according to the reported protocol. […]
Inhibition%= (Ablank-Asample)/(Ablank)*100. (1)

[2] = inhibition zone diameter, six-mm disks soaked with 20 μM of compound

Row | Compound | IC50 (MCF-7 cells) [µM] | MCF7 TI (IC50 WI-38 / IC50 MCF-7) (MCF-7 cells) | IC50 (WI-38 cells) [µM] | radical scavenging activity, ABTS assay [1] [%] | IC50 [1] [µM] | C. albicans IZD (mm) (Candida albicans; [2]) | C. albicans A% (activity index) (Candida albicans) [%] | melting point [°C] | IC50 (MCF-7 cells; Homo sapiens, MCF7) [µM] | IC50 (WI-38 cells; Homo sapiens) [µM] | zone of inhibition at 20 µM (Candida albicans; [2]) [mm]
1 | 2-((4-(2-(3-hydroxynaphthalen-1(4H)-ylidene)hydrazinyl)phenyl)selanyl)-N-phenylacetamide [Compound 9] | 3.27 ± 0.2 | 12 | 39.3 ± 2.5 | 88 | 28.87 ± 0.2 | 21 | 88 | – | – | – | –
2 | Nc1ccc([Se]CC(=O)Nc2ccccc2)cc1 [Compound 4, 2-((4-aminophenyl)selanyl)-N-phenylacetamide] | – | 4.6 | – | 78 | – | – | 54 | 121 to 122 | 11.3 ± 0.8 | 52.3 ± 3 | 13
3 | CCOc1ccc(NC(=O)C[Se]c2ccc(N)cc2)cc1 [Compound 5, 2-((4-aminophenyl)selanyl)-N-(4-ethoxyphenyl)acetamide] | – | 4 | – | 53 | – | – | 33 | 136 to 137 | 25.5 ± 2 | > 100 | 8
4 | Nc1ccc([Se]CC(=O)N[C@@H](Cc2c[nH]c3ccccc23)C(=O)O)cc1 [Compound 6, (2-((4-aminophenyl)selanyl)acetyl)tryptophan] | – | 5 | – | 85 | 31.92 ± 0.29 | – | 83 | 154 to 156 | 5.69 ± 0.4 | 28.4 ± 2.2 | 20
5 | O=C(O)CCC(=O)Nc1ccc([Se]CC(=O)Nc2ccccc2)cc1 [Compound 11, 4-oxo-4-((4-((2-oxo-2-(phenylamino)ethyl)selanyl)phenyl)amino)butanoic acid] | – | 3.2 | – | 74 | – | – | 54 | 163 to 165 | 21.2 ± 1.8 | 67.3 ± 3.9 | 13
6 | O=C(C[Se]c1ccc(N2C(=O)CCC2=O)cc1)Nc1ccccc1 [Compound 14, 2-((4-(2,5-dioxopyrrolidin-1-yl)phenyl)selanyl)-N-phenylacetamide] | – | 3.6 | – | 81 | – | – | 63 | 159 to 161 | 17.1 ± 1.4 | 62 ± 3.6 | 15
7 | C[Se]c1ccc(NC(=O)C=CC(=O)O)cc1 [Compound 15, 4-((4-(methylselanyl)phenyl)amino)-4-oxobut-2-enoic acid] | – | 2.8 | – | 84 | – | – | 67 | 171 | 7.03 ± 0.6 | 19.8 ± 1.5 | 16
8 | C[Se]c1ccc(NC(=O)CCC(=O)O)cc1 [Compound 16, 4-((4-(methylselanyl)phenyl)amino)-4-oxobutanoic acid] | – | 0.7 | – | 71 | – | – | 50 | 169.6 | 29.5 ± 2.2 | 22.5 ± 1.9 | 12
